Data on 23 molecules can be found in patent publication US10385022B2, “3-amino-pyridines as GPBAR1 agonists” (HOFFMANN-LA ROCHE INC., priority 2011, dated 2019).

Molecules are shown by their SMILES.

Usually EC50 stands for the midpoint of the concentration-response curve.

This experiment concerns the target human GPBAR1 receptor (Homo sapiens (Human), UniProt Q8TDU6). The experiment in a line: functional cAMP assay in CHO-dhfr(minus) cells expressing human GPBAR1 receptors. The experiment is classed as cell-based. Particulars: CHO-dhfr(minus) cells expressing human GPBAR1, 30 min at 30° C. The essentials: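 Functional cAMP responses in a human GPBAR1-transfected CHO-dhfr- clone, picked using lithocholic acid as agonist, gave the EC50 values. Parallel testing in untransfected CHO cells served as a specificity control.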
Background: Changes in cAMP serve as a functional read-out for many G protein-coupled receptors.

Sequence of human GPBAR1 receptor (Q8TDU6 whole entry): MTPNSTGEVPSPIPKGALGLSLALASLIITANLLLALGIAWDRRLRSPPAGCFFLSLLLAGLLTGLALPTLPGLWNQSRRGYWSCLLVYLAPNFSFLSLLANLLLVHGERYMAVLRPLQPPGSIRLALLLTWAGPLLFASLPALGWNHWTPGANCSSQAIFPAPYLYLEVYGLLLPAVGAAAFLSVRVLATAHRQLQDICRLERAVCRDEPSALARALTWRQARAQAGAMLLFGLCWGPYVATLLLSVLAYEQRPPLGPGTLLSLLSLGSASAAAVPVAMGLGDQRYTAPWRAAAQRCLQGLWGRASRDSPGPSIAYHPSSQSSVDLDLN

In turn, `COc1ncccc1-c1ccncc1N(CC(F)(F)F)C(=O)c1cc(C(F)(F)F)cc(C(F)(F)F)c1` [Example 135, N-(2-Methoxy-[3,4′]bipyridinyl-3′-yl)-N-(2,2,2-trifluoro-ethyl)-3,5-bis-trifluoromethyl-benzamide] showed an EC50 of 91 nM. This counts as double-digit nanomolar. The result for `COc1cc(F)ccc1-c1ccncc1N(CC(F)(F)F)C(=O)c1cc(C(F)(F)F)cc(S(C)(=O)=O)c1` [Example 136, N-[4-(4-Fluoro-2-methoxy-phenyl)-pyridin-3-yl]-3-methanesulfonyl-N-(2,2,2-trifluoro-ethyl)-5-trifluoromethyl-benzamide] reads 247 nM; that for `COc1cc(F)c(F)cc1-c1ccncc1N(C)C(=O)c1cc(C(F)(F)F)cc(S(C)(=O)=O)c1` [Example 137, N-[4-(4,5-Difluoro-2-methoxy-phenyl)-pyridin-3-yl]-3-methanesulfonyl-N-methyl-5-trifluoromethyl-benzamide], 166 nM; that for `COc1cc(F)ccc1-c1ccncc1N(C)C(=O)c1cc(C(F)(F)F)cc(S(C)(=O)=O)c1` [Example 138, N-[4-(4-Fluoro-2-methoxy-phenyl)-pyridin-3-yl]-3-methanesulfonyl-N-methyl-5-trifluoromethyl-benzamide], 42 nM. The result for `COc1cc(F)c(F)cc1-c1ccncc1N(CC(F)(F)F)C(=O)c1cc(C(F)(F)F)cc(S(C)(=O)=O)c1` [Example 139, N-[4-(4,5-Difluoro-2-methoxy-phenyl)-pyridin-3-yl]-3-methanesulfonyl-N-(2,2,2-trifluoro-ethyl)-5-trifluoromethyl-benzamide] reads 606 nM.

As for `COc1cc(F)c(F)cc1-c1ccncc1N(CC(F)(F)F)C(=O)c1cc(C(F)(F)F)cc(S(=O)(=O)N(C)C)c1` [Example 140, N-[4-(4,5-Difluoro-2-methoxy-phenyl)-pyridin-3-yl]-3-dimethylsulfamoyl-N-(2,2,2-trifluoro-ethyl)-5-trifluoromethyl-benzamide], the midpoint of the response, the EC50, lay at 124 nM. Compared with the last molecule, the EC50 is about 4.9-fold lower. The molecule `COc1ncccc1-c1ccncc1N(CC(F)(F)F)C(=O)c1cc(F)cc(C(F)(F)F)c1` [Example 141, 3-Fluoro-N-(2-methoxy-[3,4′]bipyridinyl-3′-yl)-N-(2,2,2-trifluoro-ethyl)-5-trifluoromethyl-benzamide] displayed an EC50 of 1660 nM. This EC50 is about 13-fold higher than that of the molecule before. The result for `COc1ncccc1-c1ccncc1N(CC(F)(F)F)C(=O)c1cc(C(F)(F)F)cc(S(C)(=O)=O)c1` [Example 142, 3-Methanesulfonyl-N-(2-methoxy-[3,4′]bipyridinyl-3′-yl)-N-(2,2,2-trifluoro-ethyl)-5-trifluoromethyl-benzamide] reads 396 nM.

As for `COc1cc(F)ccc1-c1ccncc1N(C)C(=O)c1cc(C(F)(F)F)cc(S(=O)(=O)N(C)C)c1` [Example 143, 3-Dimethylsulfamoyl-N-[4-(4-fluoro-2-methoxy-phenyl)-pyridin-3-yl]-N-methyl-5-trifluoromethyl-benzamide], the EC50 came to 12 nM. The result for `COc1cc(F)c(F)cc1-c1ccncc1N(C)C(=O)c1cc(C(F)(F)F)nc(C(F)(F)F)c1` [Example 144, N-[4-(4,5-Difluoro-2-methoxy-phenyl)-pyridin-3-yl]-N-methyl-2,6-bis-trifluoromethyl-isonicotinamide] reads 22 nM; that for `COc1ncccc1-c1ccncc1N(CC(F)(F)F)C(=O)c1cc(C(F)(F)F)nc(C(F)(F)F)c1` [Example 145, N-(2-Methoxy-[3,4′]bipyridinyl-3′-yl)-N-(2,2,2-trifluoro-ethyl)-2,6-bis-trifluoromethyl-isonicotinamide], 30 nM; that for `COc1cc(F)c(F)cc1-c1ccncc1N(CC(F)(F)F)C(=O)c1cc(C(F)(F)F)nc(C(F)(F)F)c1` [Example 146, N-[4-(4,5-Difluoro-2-methoxy-phenyl)-pyridin-3-yl]-N-(2,2,2-trifluoro-ethyl)-2,6-bis-trifluoromethyl-isonicotinamide], 69 nM. The same measure for `COc1cc(F)ccc1-c1ccncc1N(CC(F)(F)F)C(=O)c1cc(C(F)(F)F)nc(C(F)(F)F)c1` [Example 147, N-[4-(4-Fluoro-2-methoxy-phenyl)-pyridin-3-yl]-N-(2,2,2-trifluoro-ethyl)-2,6-bis-trifluoromethyl-isonicotinamide]: 18 nM; for `COc1cc(F)ccc1-c1ccncc1N(C)C(=O)c1cc(C(F)(F)F)nc(C(F)(F)F)c1` [Example 148, N-[4-(4-Fluoro-2-methoxy-phenyl)-pyridin-3-yl]-N-methyl-2,6-bis-trifluoro methyl-isonicotinamide]: 6 nM; for `Cc1ccccc1-c1ccncc1N(C)C(=O)c1cc(C#N)cc(C(F)(F)F)c1` [Example 149, 3-Cyano-N-methyl-N-(4-o-tolyl-pyridin-3-yl)-5-trifluoromethyl-benzamide]: 242 nM. The result for `Cc1ccccc1-c1ccncc1N(CC(F)(F)F)C(=O)c1cc(C(F)(F)F)nc(C(F)(F)F)c1` [Example 150, N-(4-o-Tolyl-pyridin-3-yl)-N-(2,2,2-trifluoro-ethyl)-2,6-bis-trifluoromethyl-isonicotinamide] reads 90 nM; that for `O=C(c1cc(C(F)(F)F)nc(C(F)(F)F)c1)N(CC(F)(F)F)c1cnccc1-c1ccccc1F` [Example 151, N-[4-(2-Fluoro-phenyl)-pyridin-3-yl]-N-(2,2,2-trifluoro-ethyl)-2,6-bis-trifluoromethyl-isonicotinamide], 47 nM. `Cc1ccccc1-c1ccncc1N(C)C(=O)c1cc(N2CCOCC2)cc(C(F)(F)F)c1` [Example 152, N-Methyl-3-morpholin-4-yl-N-(4-o-tolyl-pyridin-3-yl)-5-trifluoromethyl-benzamide] yielded an EC50 of 558 nM.

The molecule `COc1cc(F)ccc1-c1ccncc1N(CC(F)F)C(=O)c1cc(C(F)(F)F)nc(C(F)(F)F)c1` [Example 153, N-(2,2-Difluoro-ethyl)-N-[4-(4-fluoro-2-methoxy-phenyl)-pyridin-3-yl]-2,6-bis-trifluoromethyl-isonicotinamide] yielded an EC50 of 19 nM. Consider `COc1cc(F)c(F)cc1-c1ccncc1N(CC(F)F)C(=O)c1cc(C(F)(F)F)nc(C(F)(F)F)c1` [Example 154, N-(2,2-Difluoro-ethyl)-N-[4-(4,5-difluoro-2-methoxy-phenyl)-pyridin-3-yl]-2,6-bis-trifluoromethyl-isonicotinamide], for which the EC50 was 39 nM. The same measure for `O=C(c1cc(C(F)(F)F)nc(C(F)(F)F)c1)N(CC(F)F)c1cnccc1-c1ccccc1F` [Example 155, N-(2,2-Difluoro-ethyl)-N-[4-(2-fluoro-phenyl)-pyridin-3-yl]-2,6-bis-trifluoromethyl-isonicotinamide]: 38 nM; for `COc1ncccc1-c1ccncc1N(CC(F)F)C(=O)c1cc(C(F)(F)F)nc(C(F)(F)F)c1` [Example 156, N-(2,2-Difluoro-ethyl)-N-(2-methoxy-[3,4′]bipyridinyl-3′-yl)-2,6-bis-trifluoromethyl-isonicotinamide]: 36 nM; for `Cc1ccccc1-c1ccncc1N(CC(F)F)C(=O)c1cc(C(F)(F)F)nc(C(F)(F)F)c1` [Example 157, N-(2,2-Difluoro-ethyl)-N-(4-o-tolyl-pyridin-3-yl)-2,6-bis-trifluoromethyl-isonicotinamide]: 88 nM.
